Experimental data reported in US11589603B2, “Powdered nutritional product containing branched-chain amino acids and a sugar alcohol” (Abbott Laboratories, priority 2015, dated 2023).

Experiments:
Assay type in all cases: physicochemical
[1] = Example 3: aqueous dissolution of powdered branched-chain amino acid blend (first material) with varying myo-inositol, LC/UV of filtrate; settings: for Dissolved amino acid (g per 16 oz.): 7.00 g BCAA blend, water 21° C., 400 rpm
Method: (§1) Example 3 evaluates the effect that varying the myo-inositol concentration has on the aqueous dissolution of branched-chain amino acids. Two branched-chain amino acid materials were tested. The first material tested was 7.00 grams of a powdered branched-chain amino acid blend comprising 50 wt. % leucine, 25 wt. % isoleucine, and 25 wt. % valine. The second material tested was 3.5 grams of powdered leucine. Each material was tested with varying levels of powdered myo-inositol, expressed as a percentage of 17.6 grams (e.g., a serving of powdered nutritional product). For example, 1% myo-inositol is 0.176 grams, 2% myo-inositol is 0.352 grams, and so forth. The branched-chain amino acid material and the specified amount of myo-inositol were added to 16 fluid ounces of Milli-Q Plus water at 21° C. and stirred at 400 rpm. After 30 seconds and 60 seconds of stirring, an aliquot was obtained and filtered through a 0.45 μm PTFE membrane (Pall Life Sciences, Acrodisc CR 25, P/N 4501), and the filtrate of the first material was tested for valine, isoleucine, and leucine using the LC/UV method described below, while the filtrate of the second material was tested for leucine using the same LC/UV method. The test results for the first material tested are shown in Table 3, while the test results for the second material tested are shown in Table 4.
(§2) The LC/UV system used to perform the tests comprised the following: 1) Column: YMC ODS-AQ, 4.6 x 250 mm, 5 μm, Waters P/N AQ12S052546WT; 2) Mobile Phase: Milli-Q Plus water; 3) Flow Rate: 0.4 mL/minute; 4) Temperature: 40° C.; 5) Detection: UV at 192 nm; 6) Injection: 2 μL of filtrate; and 7) Run Time: 20 minutes.

[2] = Example 4: aqueous dissolution of branched-chain amino acids in a powdered nutritional product with varying myo-inositol, LC/UV of filtrate; settings: 17.6 g powdered nutritional product, water 21° C., 400 rpm
Method: as §2
Example 4 evaluates the effect that myo-inositol concentration has on the aqueous dissolution of branched-chain amino acids (valine, isoleucine, and leucine) in a powdered nutritional product. One serving (17.6 grams) of the powdered nutritional product contains 7.00 grams of a branched-chain amino acid blend comprising 50 wt. % leucine, 25 wt. % isoleucine, and 25 wt. % valine. A serving of the powdered nutritional product with a specified amount of myo-inositol was added to 16 fluid ounces of Milli-Q Plus water at 21° C. and stirred at 400 rpm. At each specified time point, an aliquot was obtained and filtered through a 0.45 μm PTFE membrane (Pall Life Sciences, Acrodisc CR 25, P/N 4501), and the filtrate was tested for valine, isoleucine, and leucine using the LC/UV method as described in Example 3.

[3] = Example 3: aqueous dissolution of powdered leucine only (second material) with varying myo-inositol, LC/UV of filtrate; settings: for Dissolved Leucine (g per 16 oz.): 3.5 g leucine only, water 21° C., 400 rpm
Method: as §1, §2

[4] = Example 5: effect of inositol isomers on dissolution of L-leucine, LC/UV of filtrate; settings: 3.50 g L-leucine without inositol isomer (None, n = 3), water 21° C., 400 rpm
Method: The LC/UV system used to perform the tests comprised the following: 1) Column: YMC ODS-AQ, 4.6 x 250 mm, 5 μm, Waters […]; 2) Mobile Phase: Milli-Q Plus water; 3) Flow Rate: 0.4 mL/minute; 4) Temperature: 40° C.; 5) Detection: UV at 192 nm; 6) Injection: 2 μL of filtrate; and 7) Run Time: 20 minutes.

[5] = myo-inositol 0% of 17.6 g, 30 seconds
[6] = myo-inositol 0% of 17.6 g, 60 seconds
[7] = myo-inositol 1% of 17.6 g, 30 seconds
[8] = myo-inositol 1% of 17.6 g, 60 seconds
[9] = myo-inositol 2% of 17.6 g, 30 seconds
[10] = myo-inositol 2% of 17.6 g, 60 seconds
[11] = myo-inositol 4% of 17.6 g, 30 seconds
[12] = myo-inositol 4% of 17.6 g, 60 seconds
[13] = myo-inositol 8% of 17.6 g, 30 seconds
[14] = myo-inositol 8% of 17.6 g, 60 seconds

## CC(C)C[C@H](N)C(=O)O [Leucine, L-Leucine]
[1]; [5]
  Dissolved amino acid (g per 16 oz.): 0.596 g per 16 oz.
[1]; [6]
  Dissolved amino acid (g per 16 oz.): 1.21 g per 16 oz.
[1]; [7]
  Dissolved amino acid (g per 16 oz.): 0.860 g per 16 oz.
[1]; [8]
  Dissolved amino acid (g per 16 oz.): 1.51 g per 16 oz.
[1]; [9]
  Dissolved amino acid (g per 16 oz.): 0.747 g per 16 oz.
[1]; [10]
  Dissolved amino acid (g per 16 oz.): 1.53 g per 16 oz.
[1]; [11]
  Dissolved amino acid (g per 16 oz.): 0.729 g per 16 oz.
[1]; [12]
  Dissolved amino acid (g per 16 oz.): 1.36 g per 16 oz.
[1]; [13]
  Dissolved amino acid (g per 16 oz.): 1.09 g per 16 oz.
[1]; [14]
  Dissolved amino acid (g per 16 oz.): 1.94 g per 16 oz.
[1]; 30 second time point, all myo-inositol concentrations
  dissolution rate of leucine in first material compared with second material (FIG. 4): faster
[2]; myo-inositol 0%, 30 seconds
  Dissolved amino acid (g per 16 oz.): 1.73 g per 16 oz.
[2]; myo-inositol 0%, 60 seconds
  Dissolved amino acid (g per 16 oz.): 2.42 g per 16 oz.
[2]; myo-inositol 0%, 90 seconds
  Dissolved amino acid (g per 16 oz.): 2.67 g per 16 oz.
[2]; myo-inositol 0%, 240 seconds
  Dissolved amino acid (g per 16 oz.): 3.22 g per 16 oz.
[2]; myo-inositol 0%, 600 seconds
  Dissolved amino acid (g per 16 oz.): 3.44 g per 16 oz.
[2]; myo-inositol 1%, 30 seconds
  Dissolved amino acid (g per 16 oz.): 1.95 g per 16 oz.
[2]; myo-inositol 1%, 60 seconds
  Dissolved amino acid (g per 16 oz.): 2.51 g per 16 oz.
[2]; myo-inositol 1%, 90 seconds
  Dissolved amino acid (g per 16 oz.): 2.76 g per 16 oz.
[2]; myo-inositol 1%, 240 seconds
  Dissolved amino acid (g per 16 oz.): 3.27 g per 16 oz.
[2]; myo-inositol 1%, 600 seconds
  Dissolved amino acid (g per 16 oz.): 3.40 g per 16 oz.
[2]; myo-inositol 2%, 30 seconds
  Dissolved amino acid (g per 16 oz.): 1.91 g per 16 oz.
[2]; myo-inositol 2%, 60 seconds
  Dissolved amino acid (g per 16 oz.): 2.36 g per 16 oz.
[2]; myo-inositol 2%, 90 seconds
  Dissolved amino acid (g per 16 oz.): 2.67 g per 16 oz.
[2]; myo-inositol 2%, 240 seconds
  Dissolved amino acid (g per 16 oz.): 3.25 g per 16 oz.
[2]; myo-inositol 2%, 600 seconds
  Dissolved amino acid (g per 16 oz.): 3.45 g per 16 oz.
[2]; myo-inositol 4%, 30 seconds
  Dissolved amino acid (g per 16 oz.): 2.02 g per 16 oz.
[2]; myo-inositol 4%, 60 seconds
  Dissolved amino acid (g per 16 oz.): 2.47 g per 16 oz.
[2]; myo-inositol 4%, 90 seconds
  Dissolved amino acid (g per 16 oz.): 2.72 g per 16 oz.
[2]; myo-inositol 4%, 240 seconds
  Dissolved amino acid (g per 16 oz.): 3.23 g per 16 oz.
[2]; myo-inositol 4%, 600 seconds
  Dissolved amino acid (g per 16 oz.): 3.38 g per 16 oz.
[2]; myo-inositol 8%, 30 seconds
  Dissolved amino acid (g per 16 oz.): 1.94 g per 16 oz.
[2]; myo-inositol 8%, 60 seconds
  Dissolved amino acid (g per 16 oz.): 2.45 g per 16 oz.
[2]; myo-inositol 8%, 90 seconds
  Dissolved amino acid (g per 16 oz.): 2.66 g per 16 oz.
[2]; myo-inositol 8%, 240 seconds
  Dissolved amino acid (g per 16 oz.): 3.30 g per 16 oz.
[2]; myo-inositol 8%, 600 seconds
  Dissolved amino acid (g per 16 oz.): 3.48 g per 16 oz.
[3]; [5]
  Dissolved Leucine (g per 16 oz.): 0.353 g per 16 oz.
[3]; [6]
  Dissolved Leucine (g per 16 oz.): 0.703 g per 16 oz.
[3]; [7]
  Dissolved Leucine (g per 16 oz.): 0.480 g per 16 oz.
[3]; [8]
  Dissolved Leucine (g per 16 oz.): 1.04 g per 16 oz.
[3]; [9]
  Dissolved Leucine (g per 16 oz.): 0.616 g per 16 oz.
[3]; [10]
  Dissolved Leucine (g per 16 oz.): 1.33 g per 16 oz.
[3]; [11]
  Dissolved Leucine (g per 16 oz.): 0.549 g per 16 oz.
[3]; [12]
  Dissolved Leucine (g per 16 oz.): 1.09 g per 16 oz.
[3]; [13]
  Dissolved Leucine (g per 16 oz.): 0.844 g per 16 oz.
[3]; [14]
  Dissolved Leucine (g per 16 oz.): 1.62 g per 16 oz.
[3]; second material, myo-inositol 0%, 1%, 2%, 30-second plot
  slope of plot of leucine dissolution vs myo-inositol on a molar basis (FIG. 5): 1.0816
[4]; 30 seconds
  Leu dissolved at 30 seconds (g/16 oz.): 0.422 ± 0.018 g/16 oz.
[4]; 60 seconds
  Leu dissolved at 60 seconds (% of total Leu): 23.7 ± 1.0 % of total Leu
  Leu dissolved at 60 seconds (g/16 oz.): 0.828 ± 0.036 g/16 oz.
